According to patent publication US9657351B2, “MRNA-based gene expression for personalizing patient cancer therapy with an MDM2 antagonist” (Hoffmann-La Roche Inc., priority 2013, dated 2017):
Entries after “also recorded” stand apart in the source; their conditions may differ.

Tests used:
[1] = system: P21; details: NP22890; at C1D8; as previously reported; cited from earlier work
[2] = system: patients with relapsed/refractory leukemia (AML); assay: NO21279 Phase 1 leukemia trial, clinical response (CR, MLFS, HI, PD); assay type: in vivo, human
Method: The performance of the MDM2 antagonist predictive mRNA response signature is tested in the clinical setting with specimens from the NO21279 leukemia trial (FIG. 1). 28 AML patients treated at the MTD are enrolled and completed pretreatment and C1D10 (cycle 1, day 10) sampling. […] The clinical endpoint in NO21279 was divided into 4 categories: Complete Response (CR), Morphologic Leukemia-Free State (MLFS), Hematologic Improvement (HI), and Progressive Disease (PD). Blood leukemia samples and bone marrow biopsy samples were collected at baseline screening, after a single dose (cycle 1 day 2, C1D2) and on last day of dosing (cycle 1, day 10, C1D10) and isolated via MACS® separation^11. The early pharmacodynamic effect of MDM2 antagonism in blood leukemia samples was assessed by measuring MDM2 RT PCR change between baseline and C1D10. Global gene expression profiles were generated for the peripheral blood leukemia cells and bone marrow biopsy samples obtained at baseline, C1D2 and C1D10.
(§1) In the NO21279 Phase 1 clinical trial, patients with relapsed/refractory leukemia are treated with ascending doses of COMPOUND A. Specimens from subset of patients treated at the MTD (1500 mg BID×10 days) are evaluated as a part of the current gene expression study. Leukemia samples are collected at baseline, cycle 1 day 2 (C1D2) and cycle 1, day 10 (C1D10) and isolated via MACs separation.
as §1, with “RG7112.” for “COMPOUND A.”
Clinical responses are evaluated and are divided into 4 categories: Complete Response (CR), Morphologic Leukemia-Free State (MLFS), Hematologic Improvement (HI), and Progressive Disease (PD). […] In addition to assessments of baseline samples, treatment samples are also evaluated (Cycle 1, Day 10).

[3] = system: CELLO/CACTEL human cancer cell lines; assay: COMPOUND A In Vitro Assay, whole CELLO/CACTEL panel (IC50 vs mRNA signature score, TP53 status, tumor type); assay type: cell-based; details: for % Res: resistant IC50>=10; for % Sen: sensitive IC50<=1
Text: To generate an MDM2 antagonist therapy predictive signature, the response of MDM2 antagonist therapy in vitro with gene expression profiling (FIG. 1) is combined. A bank of 287 human cancer cell lines, collectively termed the Cell Lines for Oncology/Chugai ACcumulative Tumour EncycLopedia (CELLO/CACTEL), representing a broad array of diverse human cancer tumor types are subject to evaluation using several high-throughput genomic technology platforms. The mutational status of nucleic acids from each cell line is determined by exome sequencing. Messenger RNA (mRNA) expression levels at baseline, prior to MDM2 antagonist therapy, are obtained via RNA sequencing. MDM2 antagonist therapy COMPOUND A, sometimes referred to herein as RG7112, responses are obtained by assays known to those skilled in the art such as RNA sequencing and microarray measurement using Gene Chip Human Genome U133 Plus 2.0 Array. The MDM2 therapy responses are obtained by high throughout screening assays. Depending on their responses to COMPOUND A these cell lines are classified as either sensitive, defined as IC50<=1, or resistant, defined as IC50>=10.
281 cells are treated with MDM2 antagonists and the IC50 (therapy response) is generated. The cell lines span a broad range of tumor cell types of derivation.
To examine the specific prediction power of the mRNA signature score across the studied tumor types, and to make sure the prediction from the signature score is not confounded by tumor lineage, the signature score within each available tumor type in CELLO (Table 7, 7a) is examined.
The genes are ranked via their fold changes of responder cell lines to non-responder cell lines. Positive genes are defined as those with fold changes higher than 1; whereas negative genes are defined as those with fold changes less than 1. A multivariate logistic regression classifier is then built through a upward model selection procedure to maximize area under the receiver operating characteristic (ROC) curve with 10-fold cross-validation. The mode selection is implemented procedure through R package bestglm.

[4] = system: MDM2 mRNA; details: NP22890; at C1D8; as previously reported; cited from earlier work
[5] = of 28 AML patients treated at the MTD (1500 mg BID×10 days)
[6] = Adenocarcinoma cell lines, N 21
[7] = Adenocarcinoma, colorectal cell lines, N 7
[8] = Bone marrow cell lines, Number 5
[9] = Breast, mammary gland cell lines, Number 20
[10] = Carcinoma, gastric cell lines, N 5
[11] = Carcinoma, primary ductal cell lines, N 5
[12] = Carcinoma, squamous cell cell lines, N 12
[13] = Carcinoma, urinary bladder, transitional cell carcinoma (TCC) cell lines, N 7
[14] = Intestine, large, colon cell lines, Number 8
[15] = Leukaemia, acute myeloid cell lines, N 5
[16] = Lymphocyte cell lines, Number 6
[17] = Myeloma, multiple cell lines, N 5
[18] = Neuroblastoma (Glioma, neuroblastoma) cell lines, N 6
[19] = Urinary, bladder cell lines, Number 8

## CCOc1cc(C(C)(C)C)ccc1C1=N[C@@](C)(c2ccc(Cl)cc2)[C@@](C)(c2ccc(Cl)cc2)N1C(=O)N1CCN(CCCS(C)(=O)=O)CC1 [COMPOUND A]
[1]
  P21 concentration change from baseline: significantly increase
[2]; all 28 patients, NO21279
  Response, number of patients with CR: 3CR,
  Response, number of patients with HI: 6 HI,
  Response, number of patients with MLFS: 4 MLFS,
  Response, number of patients with PD: 15 PD
[2]; individual AML patients (no. 1-28), NO21279, MTD 1500 mg BID×10 days, listed as RG7112
  Response: CR (Complete Response (CR)); also recorded: MLFS (Morphologic Leukemia-Free State (MLFS)); also recorded: HI (Hematologic Improvement (HI)); also recorded: PD (Progressive Disease (PD))
[2]; [5]
  clinical response: number of patients with Complete Response (CR): 3
  clinical response: number of patients with Hematologic Improvement (HI): 6
  clinical response: number of patients with Morphologic Leukemia-Free State (MLFS): 4
  clinical response: number of patients with Progressive Disease (PD): 15
[3]; [6]
  N (resistant): 17
  N (sensitive): 4
[3]; [7]
  N (resistant): 5
  N (sensitive): 2
[3]; [8]
  % Res: 60.0%
  % Sen: 40.0%
[3]; Brain cell lines, Number 10
  % Res: 50.0%
  % Sen: 50.0%
[3]; [9]
  % Res: 85.0%
  % Sen: 15.0%
[3]; Carcinoma cell lines, N 8
  N (resistant): 6
  N (sensitive): 2
[3]; [10]
  N (resistant): 3
  N (sensitive): 2
[3]; [11]
  N (resistant): 4
  N (sensitive): 1
[3]; [12]
  N (resistant): 9
  N (sensitive): 3
[3]; [13]
  N (resistant): 6
  N (sensitive): 1
[3]; [14]
  % Res: 62.5%
  % Sen: 37.5%
[3]; [15]
  N (resistant): 3
  N (sensitive): 2
[3]; Lung cell lines, Number 41
  % Res: 85.4%
  % Sen: 14.6%
[3]; [16]
  % Res: 50.0%
  % Sen: 50.0%
[3]; [17]
  N (resistant): 2
  N (sensitive): 3
[3]; [18]
  N (resistant): 3
  N (sensitive): 3
[3]; Ovary cell lines, Number 6
  % Res: 66.7%
  % Sen: 33.3%
[3]; Pancreas cell lines, Number 9
  % Res: 100.0%
  % Sen: 0.0%
[3]; Skin cell lines, Number 6
  % Res: 66.7%
  % Sen: 33.3%
[3]; Stomach cell lines, Number 8
  % Res: 50.0%
  % Sen: 50.0%
[3]; [19]
  % Res: 75.0%
  % Sen: 25.0%
[4]
  MDM2 mRNA expression change from baseline: significantly increase
